# Data published in ChEMBL document CHEMBL5465560, “Selectivity Literature for EUbOPEN Chemogenomic Library” (2024).
# Key:
# [1] = molecular target: DNA (cytosine-5)-methyltransferase 3B (Homo sapiens) (UniProt Q9UBC3); details: at 1 µM
# [2] = molecular target: Proto-oncogene tyrosine-protein kinase ROS (Homo sapiens) (UniProt P08922); test: Selectivity interaction (Kinase panel (Z-LYTE Assay)) EUB0001632a ROS1; details: at 10 µM
# [3] = molecular target: Cyclin-dependent kinase 18 (Homo sapiens) (UniProt Q07002); details: at 10 µM
# Sequence of Cyclin-dependent kinase 18 (Homo sapiens) (Q07002 whole entry): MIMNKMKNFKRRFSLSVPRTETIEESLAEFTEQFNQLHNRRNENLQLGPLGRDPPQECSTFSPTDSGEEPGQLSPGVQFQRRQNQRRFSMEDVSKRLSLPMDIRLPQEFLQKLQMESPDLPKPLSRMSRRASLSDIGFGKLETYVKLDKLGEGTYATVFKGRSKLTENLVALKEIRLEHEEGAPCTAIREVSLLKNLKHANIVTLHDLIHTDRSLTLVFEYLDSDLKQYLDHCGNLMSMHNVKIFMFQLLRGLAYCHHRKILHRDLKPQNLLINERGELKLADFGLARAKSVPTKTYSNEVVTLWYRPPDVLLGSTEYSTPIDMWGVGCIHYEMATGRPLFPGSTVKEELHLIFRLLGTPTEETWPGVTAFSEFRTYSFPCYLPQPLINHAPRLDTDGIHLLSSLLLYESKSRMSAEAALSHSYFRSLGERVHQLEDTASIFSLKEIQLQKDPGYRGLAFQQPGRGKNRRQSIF
# [4] = molecular target: T1, Dual specificity mitogen-activated protein kinase kinase 4 (Homo sapiens) (UniProt P45985); test: Selectivity interaction (KinomeScan (DiscoverX)) EUB0001049a MAP2K4; details: at 1 µM
# T1 sequence (whole entry): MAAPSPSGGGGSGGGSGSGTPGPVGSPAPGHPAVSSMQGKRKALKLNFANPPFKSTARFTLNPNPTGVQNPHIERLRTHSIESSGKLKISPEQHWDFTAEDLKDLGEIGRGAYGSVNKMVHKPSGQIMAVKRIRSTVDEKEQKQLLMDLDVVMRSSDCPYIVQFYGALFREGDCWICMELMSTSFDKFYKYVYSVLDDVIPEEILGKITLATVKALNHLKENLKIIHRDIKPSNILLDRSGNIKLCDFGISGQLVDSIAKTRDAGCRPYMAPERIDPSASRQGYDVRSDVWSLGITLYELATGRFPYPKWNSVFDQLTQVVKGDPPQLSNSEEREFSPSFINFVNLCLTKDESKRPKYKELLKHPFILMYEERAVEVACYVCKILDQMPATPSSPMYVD
# [5] = molecular target: Phosphatidylinositol 4,5-bisphosphate 3-kinase catalytic subunit beta isoform (Homo sapiens) (UniProt P42338); test: Selectivity interaction (ActivX KiNativ screen (ex vivo kinase selectivity in human PBMCs)) EUB0001619a PIK3CB; type: cell-based; details: PBMC, at 1 µM
# Sequence of Phosphatidylinositol 4,5-bisphosphate 3-kinase catalytic subunit beta isoform (Homo sapiens) (P42338 whole entry, looked up, canonical isoform): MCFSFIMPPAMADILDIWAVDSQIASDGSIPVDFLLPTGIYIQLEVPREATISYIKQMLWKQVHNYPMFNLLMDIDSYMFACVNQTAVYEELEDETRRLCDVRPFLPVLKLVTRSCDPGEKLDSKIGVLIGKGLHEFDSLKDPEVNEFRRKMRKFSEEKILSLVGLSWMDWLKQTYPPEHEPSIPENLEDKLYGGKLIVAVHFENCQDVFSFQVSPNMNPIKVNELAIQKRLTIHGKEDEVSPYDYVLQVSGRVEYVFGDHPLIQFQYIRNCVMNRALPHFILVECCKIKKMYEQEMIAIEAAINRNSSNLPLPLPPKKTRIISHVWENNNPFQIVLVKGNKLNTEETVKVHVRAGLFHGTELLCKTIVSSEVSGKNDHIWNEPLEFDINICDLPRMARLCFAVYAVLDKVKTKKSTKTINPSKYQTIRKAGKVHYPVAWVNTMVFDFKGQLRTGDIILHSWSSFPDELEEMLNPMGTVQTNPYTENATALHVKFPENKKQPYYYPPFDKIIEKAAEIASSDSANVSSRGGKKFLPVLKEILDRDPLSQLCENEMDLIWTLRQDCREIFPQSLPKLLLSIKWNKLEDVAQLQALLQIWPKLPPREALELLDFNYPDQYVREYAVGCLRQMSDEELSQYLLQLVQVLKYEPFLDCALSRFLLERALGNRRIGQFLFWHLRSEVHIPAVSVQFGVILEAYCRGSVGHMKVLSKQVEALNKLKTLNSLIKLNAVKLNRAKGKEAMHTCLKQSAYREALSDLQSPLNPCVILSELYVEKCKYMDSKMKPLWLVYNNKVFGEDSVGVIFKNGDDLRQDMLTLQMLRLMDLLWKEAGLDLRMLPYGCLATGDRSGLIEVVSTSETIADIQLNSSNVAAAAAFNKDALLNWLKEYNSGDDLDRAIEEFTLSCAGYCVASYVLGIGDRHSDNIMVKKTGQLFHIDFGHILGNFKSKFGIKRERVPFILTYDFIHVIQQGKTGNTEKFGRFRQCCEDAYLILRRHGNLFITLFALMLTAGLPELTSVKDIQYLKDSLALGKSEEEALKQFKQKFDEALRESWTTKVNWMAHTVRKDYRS
# [6] = molecular target: T2, Serine/threonine-protein kinase MAK (Homo sapiens) (UniProt P20794); test: Selectivity interaction (KinomeScan (DiscoverX)) EUB0000607a MAK; details: at 10 µM
# T2 sequence (whole entry): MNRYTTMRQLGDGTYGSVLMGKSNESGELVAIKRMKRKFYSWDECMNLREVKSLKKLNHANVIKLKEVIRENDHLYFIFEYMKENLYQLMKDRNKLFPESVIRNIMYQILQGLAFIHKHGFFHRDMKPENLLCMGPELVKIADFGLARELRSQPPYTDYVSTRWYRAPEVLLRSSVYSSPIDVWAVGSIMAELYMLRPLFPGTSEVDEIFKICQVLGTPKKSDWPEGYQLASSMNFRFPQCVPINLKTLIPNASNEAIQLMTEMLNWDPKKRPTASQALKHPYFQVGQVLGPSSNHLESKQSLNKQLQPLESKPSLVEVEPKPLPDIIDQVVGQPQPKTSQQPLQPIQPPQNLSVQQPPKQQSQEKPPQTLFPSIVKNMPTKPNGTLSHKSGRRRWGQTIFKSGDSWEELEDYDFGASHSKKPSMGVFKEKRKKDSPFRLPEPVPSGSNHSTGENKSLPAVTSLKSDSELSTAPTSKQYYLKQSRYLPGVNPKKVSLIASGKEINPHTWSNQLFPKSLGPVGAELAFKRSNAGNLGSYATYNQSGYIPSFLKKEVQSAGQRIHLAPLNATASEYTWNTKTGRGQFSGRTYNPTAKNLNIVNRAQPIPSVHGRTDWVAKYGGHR
# [7] = tested on: T3, Receptor-type tyrosine-protein kinase FLT3 (Homo sapiens), P36888 [N841I]; test: Selectivity interaction (KinomeScan (DiscoverX)) EUB0000092b FLT3; details: at 10 µM
# T3 sequence (whole entry): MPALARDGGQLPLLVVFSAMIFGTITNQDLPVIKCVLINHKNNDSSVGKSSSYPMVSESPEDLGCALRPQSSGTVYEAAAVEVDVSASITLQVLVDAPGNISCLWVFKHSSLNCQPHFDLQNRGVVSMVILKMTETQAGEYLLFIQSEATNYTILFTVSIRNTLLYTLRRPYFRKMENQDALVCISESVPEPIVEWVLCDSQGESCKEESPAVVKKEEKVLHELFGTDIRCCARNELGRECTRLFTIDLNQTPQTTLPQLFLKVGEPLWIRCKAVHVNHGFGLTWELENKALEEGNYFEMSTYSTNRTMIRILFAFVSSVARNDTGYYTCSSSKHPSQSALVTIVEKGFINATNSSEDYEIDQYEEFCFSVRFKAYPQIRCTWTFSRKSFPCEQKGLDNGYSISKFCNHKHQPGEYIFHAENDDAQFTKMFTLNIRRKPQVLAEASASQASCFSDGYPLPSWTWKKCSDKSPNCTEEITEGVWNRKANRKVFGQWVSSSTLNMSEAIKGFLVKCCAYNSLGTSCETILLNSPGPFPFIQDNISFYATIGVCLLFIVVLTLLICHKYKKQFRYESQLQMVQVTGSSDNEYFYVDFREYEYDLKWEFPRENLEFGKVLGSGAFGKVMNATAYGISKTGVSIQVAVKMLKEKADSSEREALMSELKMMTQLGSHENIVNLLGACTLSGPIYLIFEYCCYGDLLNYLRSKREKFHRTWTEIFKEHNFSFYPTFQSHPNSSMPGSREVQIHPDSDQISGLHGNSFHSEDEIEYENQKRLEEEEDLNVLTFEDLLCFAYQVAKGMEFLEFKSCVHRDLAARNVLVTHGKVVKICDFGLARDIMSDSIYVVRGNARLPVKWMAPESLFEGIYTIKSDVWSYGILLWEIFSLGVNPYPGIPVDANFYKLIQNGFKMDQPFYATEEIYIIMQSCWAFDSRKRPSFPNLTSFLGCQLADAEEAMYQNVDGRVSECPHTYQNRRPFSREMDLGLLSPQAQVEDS
# Sequence of Proto-oncogene tyrosine-protein kinase ROS (Homo sapiens) (P08922 whole entry): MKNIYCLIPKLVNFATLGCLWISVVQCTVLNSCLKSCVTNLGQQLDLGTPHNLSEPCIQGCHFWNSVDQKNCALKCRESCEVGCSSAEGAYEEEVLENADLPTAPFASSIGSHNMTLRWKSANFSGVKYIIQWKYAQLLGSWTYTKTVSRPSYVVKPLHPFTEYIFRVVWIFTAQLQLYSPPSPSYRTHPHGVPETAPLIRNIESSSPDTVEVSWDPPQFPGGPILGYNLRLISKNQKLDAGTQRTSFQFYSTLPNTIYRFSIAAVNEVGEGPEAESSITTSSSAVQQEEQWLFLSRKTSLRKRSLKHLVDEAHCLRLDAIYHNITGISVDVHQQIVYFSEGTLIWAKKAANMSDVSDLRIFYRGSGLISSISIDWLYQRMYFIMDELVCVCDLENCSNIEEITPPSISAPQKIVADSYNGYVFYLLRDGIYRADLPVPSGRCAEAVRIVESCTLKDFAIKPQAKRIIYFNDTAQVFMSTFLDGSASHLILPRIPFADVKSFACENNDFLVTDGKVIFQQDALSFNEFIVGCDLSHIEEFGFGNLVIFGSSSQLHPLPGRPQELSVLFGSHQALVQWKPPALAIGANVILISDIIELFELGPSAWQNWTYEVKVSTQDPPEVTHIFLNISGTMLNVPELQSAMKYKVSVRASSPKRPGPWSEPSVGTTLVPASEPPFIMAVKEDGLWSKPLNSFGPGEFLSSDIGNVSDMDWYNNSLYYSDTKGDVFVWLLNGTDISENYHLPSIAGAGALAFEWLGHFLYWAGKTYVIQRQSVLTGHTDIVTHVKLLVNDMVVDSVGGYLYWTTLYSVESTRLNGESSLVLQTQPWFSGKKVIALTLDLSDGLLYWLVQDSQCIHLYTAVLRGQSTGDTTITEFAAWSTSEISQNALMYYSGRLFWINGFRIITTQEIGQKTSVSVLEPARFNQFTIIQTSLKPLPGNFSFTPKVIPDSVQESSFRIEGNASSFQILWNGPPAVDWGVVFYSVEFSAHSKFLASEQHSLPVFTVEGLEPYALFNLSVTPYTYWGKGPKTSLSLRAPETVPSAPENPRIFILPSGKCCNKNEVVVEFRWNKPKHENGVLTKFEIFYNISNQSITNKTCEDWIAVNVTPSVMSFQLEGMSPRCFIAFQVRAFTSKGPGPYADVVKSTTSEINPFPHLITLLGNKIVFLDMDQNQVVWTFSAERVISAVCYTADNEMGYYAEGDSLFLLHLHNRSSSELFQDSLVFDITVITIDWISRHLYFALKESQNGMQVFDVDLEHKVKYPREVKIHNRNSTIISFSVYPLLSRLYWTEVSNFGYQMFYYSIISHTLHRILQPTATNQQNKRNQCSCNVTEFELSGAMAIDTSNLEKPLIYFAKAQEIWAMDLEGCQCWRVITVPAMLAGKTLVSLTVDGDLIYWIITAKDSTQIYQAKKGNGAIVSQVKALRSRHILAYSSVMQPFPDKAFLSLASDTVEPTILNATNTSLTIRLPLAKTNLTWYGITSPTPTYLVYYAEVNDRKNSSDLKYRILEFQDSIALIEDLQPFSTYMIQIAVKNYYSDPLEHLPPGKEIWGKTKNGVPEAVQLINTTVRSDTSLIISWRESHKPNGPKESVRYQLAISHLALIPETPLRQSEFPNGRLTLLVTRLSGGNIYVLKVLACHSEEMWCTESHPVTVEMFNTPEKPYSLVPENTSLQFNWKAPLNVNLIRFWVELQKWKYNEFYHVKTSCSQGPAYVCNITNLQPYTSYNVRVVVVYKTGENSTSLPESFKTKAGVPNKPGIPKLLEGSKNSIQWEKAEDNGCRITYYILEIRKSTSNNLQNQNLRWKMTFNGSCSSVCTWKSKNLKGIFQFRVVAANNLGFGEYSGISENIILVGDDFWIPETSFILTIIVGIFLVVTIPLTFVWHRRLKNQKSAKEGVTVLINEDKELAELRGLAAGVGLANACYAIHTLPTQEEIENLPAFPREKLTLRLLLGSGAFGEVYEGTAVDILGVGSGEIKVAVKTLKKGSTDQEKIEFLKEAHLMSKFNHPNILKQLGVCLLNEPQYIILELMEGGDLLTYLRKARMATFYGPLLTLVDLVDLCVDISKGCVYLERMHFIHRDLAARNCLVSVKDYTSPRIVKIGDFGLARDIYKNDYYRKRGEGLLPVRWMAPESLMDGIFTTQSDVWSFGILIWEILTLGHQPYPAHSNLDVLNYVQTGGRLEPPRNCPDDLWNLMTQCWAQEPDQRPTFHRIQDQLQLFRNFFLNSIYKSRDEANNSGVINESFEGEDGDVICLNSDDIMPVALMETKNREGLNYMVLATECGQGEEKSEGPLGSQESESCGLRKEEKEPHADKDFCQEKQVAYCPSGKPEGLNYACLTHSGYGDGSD
smiles,measurement,setting,value
CNCCN1CCC(c2cc(CN(C)C(=O)c3cccc(Oc4ccccc4)c3)ccn2)CC1,% activity,[1],> 85%
Cn1cc(-n2cnc3c(NCc4nc5cc(Cl)c(Cl)cc5[nH]4)nc(N4CCOCC4)nc32)cn1,% of control,[2],0.847%
Cc1cc([C@@H](C)Nc2ccccc2C(=O)O)c2nc(N3CCOCC3)cc(=O)n2c1 [AZD-6482],% of control,[3],100%
COc1cc(Nc2nc(C)cc(-c3cnn4nc(OC)ccc34)n2)cc(C(F)(F)F)c1,% of control,[4],74%
N#Cc1cccc(-c2c[nH]c3ncnc(N4CCOCC4)c23)c1,% of inhibition,[5],-3%
CNC(=O)Nc1ccc(-c2nc(N3CC4CCC(C3)O4)c3cnn(C4CCC5(CC4)OCCO5)c3n2)cc1,% of control,[6],100%
CCC(=O)N1CCN(c2ccc(-n3c(=O)ccc4cnc5ccc(-c6cnc7ccccc7c6)cc5c43)cc2C(F)(F)F)CC1,% of control,[7],8.8%
